ChEMBL document CHEMBL5532719, “Insight on Some Newly Synthesized Trisubstituted Imidazolinones as VEGFR-2 Inhibitors” (ACS Med Chem Lett, 2024)
Values after ≈ are worked out from the molar mass of the structure shown.

Experiments:
A549 = test: Cytotoxicity against human A549 cells incubated for 72 hrs by MTT assay; assay type: functional, cell-based; conditions: A549, 72 h
MCF7 [1] = test: Cytotoxicity against human MCF7 cells incubated for 72 hrs by MTT assay; assay type: functional, cell-based; conditions: MCF7, 72 h
[2] = target: T1, Vascular endothelial growth factor receptor 2 (Homo sapiens, UniProt P35968); test: Inhibition of recombinant VEGFR2 (unknown origin) using poly (Glu,Tyr) 4:1 as substrate measured after 45 mins in presence of ATP by microplate reader analysis
[3] = target: T1, Vascular endothelial growth factor receptor 2; test: Inhibition of recombinant human VEGFR-2 using poly (Glu,Tyr) 4:1 as substrate in presence of ATP
MCF7 [4] = test: Cytotoxicity against human MCF-7 cells; assay type: functional, cell-based
HepG2 = test: Cytotoxicity against human HepG2 cells; assay type: functional, cell-based
[5] = Cytotoxicity against HUVECs incubated for 72 hrs by MTT assay; assay type: toxicity, cell-based; conditions: human, HUVEC cells
HUVEC = test: Inhibition of cell migration in human HUVECs assessed as reduction in wound closure percentage (reference value: 97.037%); assay type: functional; design: scale not given: the % may be the effect or the level left
[6] = Cytotoxicity against human WI-38 cells incubated for 72 hrs by MTT assay; assay type: toxicity, cell-based
MCF7 [7] = test: Induction of apoptosis in human MCF7 cells assessed as necrotic cells at 5.86 uM incubated for 72 hrs by Annexin-V/PI staining based flow cytometry analysis (reference value: 0.02%); assay type: functional
[8] = Selectivity index, ratio of IC50 for human WI-38 cells to IC50 for human A549 cells; assay type: toxicity; conditions: WI-38 cells versus A549 cells, read-out: Ratio IC50
MCF7 [9] = test: Induction of apoptosis in human MCF7 cells assessed as early apoptotic cells at 5.86 uM incubated for 72 hrs by Annexin-V/PI staining based flow cytometry analysis (reference value: 0.06%); assay type: functional
MCF7 [10] = test: Induction of cell cycle arrest in human MCF7 cells assessed as G2/M phase arrest at 5.86 uM incubated for 72 hrs by PI staining based flow cytometry analysis (reference value: 13.52%); assay type: functional
[11] = Selectivity index, ratio of IC50 for human WI-38 cells to IC50 for human MCF7 cells; assay type: toxicity; conditions: WI-38 cells versus MCF7 cells, read-out: Ratio IC50
MCF7 [12] = test: Induction of cell cycle arrest in human MCF7 cells assessed as G1 phase arrest at 5.86 uM incubated for 72 hrs by PI staining based flow cytometry analysis (reference value: 11.07%); assay type: functional
MCF7 [13] = test: Induction of apoptosis in human MCF7 cells assessed as late apoptotic cells at 5.86 uM incubated for 72 hrs by Annexin-V/PI staining based flow cytometry analysis (reference value: 0.68%); assay type: functional

T1 sequence (P35968 whole entry): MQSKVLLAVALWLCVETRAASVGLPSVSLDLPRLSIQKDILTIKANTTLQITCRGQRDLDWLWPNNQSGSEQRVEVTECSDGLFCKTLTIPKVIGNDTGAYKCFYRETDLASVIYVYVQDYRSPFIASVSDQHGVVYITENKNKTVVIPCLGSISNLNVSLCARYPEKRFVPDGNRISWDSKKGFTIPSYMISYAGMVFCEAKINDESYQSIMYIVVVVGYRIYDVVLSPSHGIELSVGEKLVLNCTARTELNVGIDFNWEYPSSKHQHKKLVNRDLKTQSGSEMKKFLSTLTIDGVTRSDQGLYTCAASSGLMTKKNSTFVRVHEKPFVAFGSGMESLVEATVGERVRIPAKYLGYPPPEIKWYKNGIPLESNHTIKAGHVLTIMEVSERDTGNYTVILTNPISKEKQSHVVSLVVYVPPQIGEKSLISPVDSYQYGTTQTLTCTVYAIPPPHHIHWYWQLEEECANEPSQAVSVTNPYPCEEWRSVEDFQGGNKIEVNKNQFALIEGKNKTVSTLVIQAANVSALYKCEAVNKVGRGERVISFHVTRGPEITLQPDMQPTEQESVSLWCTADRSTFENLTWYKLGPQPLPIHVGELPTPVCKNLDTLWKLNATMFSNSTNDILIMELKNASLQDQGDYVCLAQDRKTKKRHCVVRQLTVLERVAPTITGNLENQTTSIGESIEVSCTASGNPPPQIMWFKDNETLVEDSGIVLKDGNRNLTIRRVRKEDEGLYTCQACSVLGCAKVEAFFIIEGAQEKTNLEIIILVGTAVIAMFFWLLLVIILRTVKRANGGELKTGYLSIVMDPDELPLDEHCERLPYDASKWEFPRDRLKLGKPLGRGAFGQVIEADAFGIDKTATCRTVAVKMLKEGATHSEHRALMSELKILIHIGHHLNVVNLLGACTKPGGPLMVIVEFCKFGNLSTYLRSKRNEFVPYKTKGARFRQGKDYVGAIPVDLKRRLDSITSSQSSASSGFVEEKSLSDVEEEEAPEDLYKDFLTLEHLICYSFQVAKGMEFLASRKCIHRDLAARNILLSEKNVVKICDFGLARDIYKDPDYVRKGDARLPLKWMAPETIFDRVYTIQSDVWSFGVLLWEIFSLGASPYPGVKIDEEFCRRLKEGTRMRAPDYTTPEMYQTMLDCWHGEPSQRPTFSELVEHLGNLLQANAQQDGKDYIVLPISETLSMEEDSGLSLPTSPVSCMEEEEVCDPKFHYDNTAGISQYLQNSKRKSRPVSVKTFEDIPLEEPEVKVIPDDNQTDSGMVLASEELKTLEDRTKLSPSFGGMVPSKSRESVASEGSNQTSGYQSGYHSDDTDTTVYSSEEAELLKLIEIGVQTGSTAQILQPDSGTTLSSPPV

SMILES	IC50 (A549) [µM]	IC50 (MCF7 [1]) [µM]	IC50 [2] [µM]	also measured
Cc1cc(NS(=O)(=O)c2ccc(NC(=O)COC(=O)c3ccc(N4C(=O)/C(=C/c5ccc(N(C)C)cc5)N=C4c4ccccc4)cc3)cc2)no1	30.6	26.8	–	–
CN(C)c1ccc(/C=C2\N=C(c3ccccc3)N(c3ccc(C(=O)OCC(=O)Nc4ccc(S(=O)(=O)Nc5ncccn5)cc4)cc3)C2=O)cc1	27.3	28.8	–	–
Cc1cc(NS(=O)(=O)c2ccc(N3C(=O)/C(=C/c4ccc(N(C)C)cc4)N=C3c3ccccc3)cc2)no1	10.1	9.85	0.14	–
CN(C)c1ccc(/C=C2\N=C(c3ccccc3)N(c3ccc(C(=O)OCC(=O)Nc4ccc(S(N)(=O)=O)cc4)cc3)C2=O)cc1	14.1	17.7	0.02	–
Cc1cc(NS(=O)(=O)c2ccc(NC(=O)COC(=O)c3ccc(N4C(=O)/C(=C/c5ccc(N(C)C)cc5)N=C4c4ccc(Cl)cc4)cc3)cc2)no1	45.5	42.1	–	–
CN(C)c1ccc(/C=C2\N=C(c3ccc(Cl)cc3)N(c3ccc(S(=O)(=O)Nc4nccs4)cc3)C2=O)cc1	16.2	8.65	0.1	–
CN(C)c1ccc(/C=C2\N=C(c3ccccc3)N(c3ccc(S(=O)(=O)NC(=N)N)cc3)C2=O)cc1	61.2	37.4	–	–
CN(C)c1ccc(/C=C2\N=C(c3ccccc3)N(c3ccc(S(=O)(=O)Nc4nccs4)cc3)C2=O)cc1	31.6	39.9	–	–
CN(C)c1ccc(/C=C2\N=C(c3ccc(Cl)cc3)N(c3ccc(C(=O)OCC(=O)Nc4ccc(S(=O)(=O)Nc5nccs5)cc4)cc3)C2=O)cc1	12.9	10	0.11	–
CCOC(=O)/C(C#N)=C(\c1ccc(O)cc1)N1CC(=O)N(/N=C(\C)c2ccc(O)cc2O)C1=S	–	–	–	IC50 [3]: 0.0198 µM
CC(=O)Oc1ccc(/C=C2\N=C(c3ccc(Cl)cc3)N(c3ccccc3)C2=O)cc1Br	–	–	–	IC50 (MCF7 [4]): 17.8 µg/mL (≈ 35.9 µM); IC50 (HepG2): 4.6 µg/mL (≈ 9.28 µM)
COc1cccc2c1C(=O)c1c(O)c3c(c(O)c1C2=O)C[C@@](O)(C(=O)CO)C[C@@H]3O[C@H]1C[C@H](N)[C@H](O)[C@H](C)O1 [DOXORUBICIN]	4.99	6.52	–	–
CN(C)c1ccc(/C=C2\N=C(c3ccccc3)N(c3ccc(C(=O)OCC(=O)Nc4ccc(S(=O)(=O)NC(=N)N)cc4)cc3)C2=O)cc1	38.7	27.7	–	–
CNC(=O)c1cc(Oc2ccc(NC(=O)Nc3ccc(Cl)c(C(F)(F)F)c3)cc2)ccn1 [SORAFENIB]	7.46	4.88	–	IC50 at 72 h [5]: 89.8 µM; Activity (HUVEC): 57.037%
C/C(=N\N1C(=O)CNC1=S)c1ccc(O)cc1O	–	–	–	IC50 [3]: 0.0251 µM
CN(C)c1ccc(/C=C2\N=C(c3ccc(Cl)cc3)N(c3ccc(C(=O)OCC(=O)Nc4ccc(S(=O)(=O)Nc5ncccn5)cc4)cc3)C2=O)cc1	58	28.4	–	–
CN(C)c1ccc(/C=C2\N=C(c3ccc(Cl)cc3)N(c3ccc(S(N)(=O)=O)cc3)C2=O)cc1	28.8	11.5	0.1	–
CN(C)c1ccc(/C=C2\N=C(c3ccc(Cl)cc3)N(c3ccc(C(=O)OCC(=O)Nc4ccc(S(N)(=O)=O)cc4)cc3)C2=O)cc1	25	24.2	0.36	–
CN(C)c1ccc(/C=C2\N=C(c3ccc(Cl)cc3)N(c3ccc(S(=O)(=O)Nc4ncccn4)cc3)C2=O)cc1	7.66	5.86	0.07	IC50 at 72 h [6]: 21.6 µM; Activity (MCF7 [7]): 1.64%; selectivity ratio [8]: 2.88; Activity (MCF7 [9]): 22.84%; IC50 at 72 h [5]: 179 µM; Activity (MCF7 [10]): 35.17%; Activity (HUVEC): 65.926%; selectivity ratio [11]: 3.69; Activity (MCF7 [12]): 22.68%; Activity (MCF7 [13]): 42.21%
CN(C)c1ccc(/C=C2\N=C(c3ccccc3)N(c3ccc(S(=O)(=O)Nc4ncccn4)cc3)C2=O)cc1	29.6	21.1	–	–
CN(C)c1ccc(/C=C2\N=C(c3ccccc3)N(c3ccc(S(N)(=O)=O)cc3)C2=O)cc1	29	19.5	0.2	–
CN(C)c1ccc(/C=C2\N=C(c3ccc(Cl)cc3)N(c3ccc(S(=O)(=O)NC(=N)N)cc3)C2=O)cc1	27.8	13.6	0.16	–
CN(C)c1ccc(/C=C2\N=C(c3ccccc3)N(c3ccc(C(=O)OCC(=O)Nc4ccc(S(=O)(=O)Nc5nccs5)cc4)cc3)C2=O)cc1	16.6	26.5	–	–
Cc1cc(NS(=O)(=O)c2ccc(N3C(=O)/C(=C/c4ccc(N(C)C)cc4)N=C3c3ccc(Cl)cc3)cc2)no1	42.4	11.5	0.11	–
CN(C)c1ccc(/C=C2\N=C(c3ccc(Cl)cc3)N(c3ccc(C(=O)OCC(=O)Nc4ccc(S(=O)(=O)NC(=N)N)cc4)cc3)C2=O)cc1	20.2	17.2	–	–
O=C1/C(=C/c2ccc(O)c(Br)c2)N=C(c2ccc(Cl)cc2)N1c1ccccc1	–	–	–	IC50 (MCF7 [4]): 18 µg/mL (≈ 39.7 µM); IC50 (HepG2): 6.1 µg/mL (≈ 13.4 µM)
